Source: PMC6321168, “Comparative Study on Excretive Characterization of Main Components in Herb Pair Notoginseng-Safflower and Single Herbs by LC–MS/MS” (Pharmaceutics, 2018)

Assay: Urinary excretion study in rats after oral NS, SF or CNS (LC–MS/MS)
Assay type: in vivo
Details: for concentration at 2 h / concentration at 4 h / concentration at 8 h / concentration at 12 h / concentration at 24 h / concentration at 36 h / concentration at 48 h / concentration at 72 h / concentration at 96 h / concentration at 120 h / concentration at 6 h: male, Sprague Dawley, rat, urine, oral; for Accumulative excretion amount / Accumulative excretion percentage / Excretion amount: rat urine
Protocol: The animal room was set at constant temperature of 20 ± 2 °C with humidity of 50 ± 20% and 12/12 h light/dark cycle.
Eighteen male rats were fasted for 12 h before starting the experiment. The rats were divided into three groups at random (n = 6) and received NS (60 mg/kg), SF (50 mg/kg), and NS (60 mg/kg) + SF (50 mg/kg), respectively, by oral gavage. The rats were placed in separate metabolic cages. The urine samples were collected at 0–2, 2–4, 4–6, 6–8, 8–12, 12–24, 24–36, 36–48, 48–72, 72–96, and 96–120 h. The feces samples were collected at 0–4, 4–8, 8–12, 12–24, 24–36, 36–48, 48–72, 72–96, and 96–120 h. The urine volume was recorded and the dry feces were measured for each collection period. Samples were stored at −80 °C until analysis.
An aliquot of 200 μL urine sample was mixed with 10 μL of IS and evaporated to dryness with a ZLS-2 vacuum centrifugal concentrator (Herexi Co., Ltd., Changsha, Hunan, China). The residue was reconstituted in 100 μL of 50% methanol vortexed for 2 min and centrifuged at 12,000 rpm for 15 min. Finally, a 1 μL aliquot was injected for LC–MS analysis.
Ultra fast liquid chromatography (UFLC) analysis was performed using a Shimadzu UFLC system (DGU-20A3R Degasser; LC-20AD pump; SIL-20AXR Autosampler; CTO-20AC Column Oven) (Nakagyo-Ku, Koyoto, Japan). […] Because of the different endogenous substances in the urine and feces samples, different elution gradients were used to alleviate the matrix effects for the analytes.
The mass spectrometric detection was performed on an ABSciex 4500 Qtrap mass spectrometer (ABSciex, Foster City, CA, USA) equipped with a negative electrospray ionization (ESI) interface using multiple reaction monitoring (MRM). The MS parameters were optimized under the selected ion monitoring conditions as follows: curtain gas, 35 psi; ionspray voltage, 4500 V; turbo gas temperature, 450 °C; GS1, 45 psi; GS2, 45 psi. All data were acquired and analyzed by Analyst software (Versions 1.6.2) from ABSciex.
The accumulative excretion percentage was calculated for each analyte as follows. Excretion at time (t) = [concentration of the analyte (ng/mL) at t] × total urine (or feces) volume (mL) at t. The cumulative excretion up to time t (mg) was expressed as a percent (%) cumulative excretion by dividing by the total amount of the analyte ingested (mg): % Cumulative Excretion = 100 × (Σt excretiont) total ingested.

CC(C)=CCC[C@](C)(O[C@@H]1O[C@H](CO[C@@H]2O[C@H](CO)[C@@H](O)[C@H](O)[C@H]2O)[C@@H](O)[C@H](O)[C@H]1O)[C@H]1CC[C@]2(C)[C@@H]1[C@H](O)C[C@@H]1[C@@]3(C)CC[C@H](O[C@@H]4O[C@H](CO)[C@@H](O)[C@H](O)[C@H]4O[C@@H]4O[C@H](CO)[C@@H](O)[C@H](O)[C@H]4O)C(C)(C)[C@@H]3CC[C@]12C [ginsenoside Rb1]
concentration at 2 h (60 mg/kg, oral NS 60 mg/kg, 2 h): 115 ± 284 ng/mL | concentration at 4 h (60 mg/kg, oral NS 60 mg/kg, 4 h): 245 ± 450 ng/mL | concentration at 8 h (60 mg/kg, oral NS 60 mg/kg, 8 h): 140 ± 196 ng/mL | concentration at 12 h (60 mg/kg, oral NS 60 mg/kg, 12 h): 214 ± 344 ng/mL | concentration at 24 h (60 mg/kg, oral NS 60 mg/kg, 24 h): 240 ± 553 ng/mL | concentration at 36 h (60 mg/kg, oral NS 60 mg/kg, 36 h): 61 ± 54 ng/mL | concentration at 48 h (60 mg/kg, oral NS 60 mg/kg, 48 h): 142 ± 344 ng/mL | concentration at 72 h (60 mg/kg, oral NS 60 mg/kg, 72 h): 84 ± 195 ng/mL | concentration at 96 h (60 mg/kg, oral NS 60 mg/kg, 96 h): 45 ± 104 ng/mL | concentration at 120 h (60 mg/kg, oral NS 60 mg/kg, 120 h): 25 ± 62 ng/mL | concentration at 2 h (oral CNS 110 mg/kg, 2 h): 54 ± 73 ng/mL | concentration at 4 h (oral CNS 110 mg/kg, 4 h): 27 ± 41 ng/mL | concentration at 6 h (oral CNS 110 mg/kg, 6 h): 111 ± 121 ng/mL | concentration at 8 h (oral CNS 110 mg/kg, 8 h): 105 ± 100 ng/mL | concentration at 12 h (oral CNS 110 mg/kg, 12 h): 120 ± 134 ng/mL | concentration at 24 h (oral CNS 110 mg/kg, 24 h): 72 ± 50 ng/mL | concentration at 36 h (oral CNS 110 mg/kg, 36 h): 138 ± 144 ng/mL | concentration at 48 h (oral CNS 110 mg/kg, 48 h): 51 ± 60 ng/mL | concentration at 72 h (oral CNS 110 mg/kg, 72 h): 33 ± 28 ng/mL | concentration at 96 h (oral CNS 110 mg/kg, 96 h): 19 ± 14 ng/mL | concentration at 120 h (oral CNS 110 mg/kg, 120 h): 14 ± 12 ng/mL | concentration at 6 h (oral NS 60 mg/kg, 6 h): 140 ± 244 ng/mL | Accumulative excretion amount (oral CNS 110 mg/kg, 2 h): 0.075 ± 0.093 µg | Accumulative excretion percentage (oral CNS 110 mg/kg, 2 h): 0.002±0.002% | Excretion amount (oral CNS 110 mg/kg, 2 h): 0.075 ± 0.093 µg | Accumulative excretion amount (oral CNS 110 mg/kg, 4 h): 0.106 ± 0.086 µg | Accumulative excretion percentage (oral CNS 110 mg/kg, 4 h): 0.003±0.002% | Excretion amount (oral CNS 110 mg/kg, 4 h): 0.044 ± 0.050 µg | Accumulative excretion amount (oral CNS 110 mg/kg, 6 h): 0.218 ± 0.166 µg | Accumulative excretion percentage (oral CNS 110 mg/kg, 6 h): 0.006±0.004% | Excretion amount (oral CNS 110 mg/kg, 6 h): 0.158 ± 0.142 µg | Accumulative excretion amount (oral CNS 110 mg/kg, 8 h): 0.339 ± 0.213 µg | Accumulative excretion percentage (oral CNS 110 mg/kg, 8 h): 0.009±0.006% | Excretion amount (oral CNS 110 mg/kg, 8 h): 0.212 ± 0.169 µg | Accumulative excretion amount (oral CNS 110 mg/kg, 12 h): 0.472 ± 0.310 µg | Accumulative excretion percentage (oral CNS 110 mg/kg, 12 h): 0.013±0.008% | Excretion amount (oral CNS 110 mg/kg, 12 h): 0.154 ± 0.128 µg | Accumulative excretion amount (oral CNS 110 mg/kg, 24 h): 0.859 ± 0.527 µg | Accumulative excretion percentage (oral CNS 110 mg/kg, 24 h): 0.023±0.014% | Excretion amount (oral CNS 110 mg/kg, 24 h): 0.388 ± 0.391 µg | Accumulative excretion amount (oral CNS 110 mg/kg, 36 h): 1.056 ± 0.587 µg | Accumulative excretion percentage (oral CNS 110 mg/kg, 36 h): 0.028±0.016% | Excretion amount (oral CNS 110 mg/kg, 36 h): 0.197 ± 0.129 µg | Accumulative excretion amount (oral CNS 110 mg/kg, 48 h): 1.303 ± 0.684 µg | Accumulative excretion percentage (oral CNS 110 mg/kg, 48 h): 0.035±0.018% | Excretion amount (oral CNS 110 mg/kg, 48 h): 0.247 ± 0.216 µg | Accumulative excretion amount (oral CNS 110 mg/kg, 72 h): 1.373 ± 0.705 µg | Accumulative excretion percentage (oral CNS 110 mg/kg, 72 h): 0.037±0.019% | Excretion amount (oral CNS 110 mg/kg, 72 h): 0.070 ± 0.060 µg | Accumulative excretion amount (oral CNS 110 mg/kg, 96 h): 1.414 ± 0.715 µg | Accumulative excretion percentage (oral CNS 110 mg/kg, 96 h): 0.038±0.019% | Excretion amount (oral CNS 110 mg/kg, 96 h): 0.040 ± 0.031 µg | Accumulative excretion amount (oral CNS 110 mg/kg, 120 h): 1.436 ± 0.726 µg | Accumulative excretion percentage (oral CNS 110 mg/kg, 120 h): 0.038±0.019% | Excretion amount (oral CNS 110 mg/kg, 120 h): 0.022 ± 0.025 µg | Accumulative excretion amount (oral NS 60 mg/kg, 2 h): 0.075 ± 0.063 µg | Accumulative excretion percentage (oral NS 60 mg/kg, 2 h): 0.002±0.001% | Excretion amount (oral NS 60 mg/kg, 2 h): 0.075 ± 0.063 µg | Accumulative excretion amount (oral NS 60 mg/kg, 4 h): 0.574 ± 1.167 µg | Accumulative excretion percentage (oral NS 60 mg/kg, 4 h): 0.013±0.027% | Excretion amount (oral NS 60 mg/kg, 4 h): 0.872 ± 1.518 µg | Accumulative excretion amount (oral NS 60 mg/kg, 6 h): 0.798 ± 1.077 µg | Accumulative excretion percentage (oral NS 60 mg/kg, 6 h): 0.019±0.025% | Excretion amount (oral NS 60 mg/kg, 6 h): 0.262 ± 0.207 µg | Accumulative excretion amount (oral NS 60 mg/kg, 8 h): 0.863 ± 1.044 µg | Accumulative excretion percentage (oral NS 60 mg/kg, 8 h): 0.021±0.025% | Excretion amount (oral NS 60 mg/kg, 8 h): 0.152 ± 0.084 µg | Accumulative excretion amount (oral NS 60 mg/kg, 12 h): 1.139 ± 1.140 µg | Accumulative excretion percentage (oral NS 60 mg/kg, 12 h): 0.027±0.027% | Excretion amount (oral NS 60 mg/kg, 12 h): 0.276 ± 0.142 µg | Accumulative excretion amount (oral NS 60 mg/kg, 24 h): 1.881 ± 1.352 µg | Accumulative excretion percentage (oral NS 60 mg/kg, 24 h): 0.044±0.032% | Excretion amount (oral NS 60 mg/kg, 24 h): 0.742 ± 0.289 µg | Accumulative excretion amount (oral NS 60 mg/kg, 36 h): 2.275 ± 1.435 µg | Accumulative excretion percentage (oral NS 60 mg/kg, 36 h): 0.053±0.033% | Excretion amount (oral NS 60 mg/kg, 36 h): 0.394 ± 0.221 µg | Accumulative excretion amount (oral NS 60 mg/kg, 48 h): 2.476 ± 1.415 µg | Accumulative excretion percentage (oral NS 60 mg/kg, 48 h): 0.058±0.033% | Excretion amount (oral NS 60 mg/kg, 48 h): 0.201 ± 0.117 µg | Accumulative excretion amount (oral NS 60 mg/kg, 72 h): 2.506 ± 1.429 µg | Accumulative excretion percentage (oral NS 60 mg/kg, 72 h): 0.058±0.033% | Excretion amount (oral NS 60 mg/kg, 72 h): 0.030 ± 0.020 µg | Accumulative excretion amount (oral NS 60 mg/kg, 96 h): 2.521 ± 1.438 µg | Accumulative excretion percentage (oral NS 60 mg/kg, 96 h): 0.060±0.034% | Excretion amount (oral NS 60 mg/kg, 96 h): 0.016 ± 0.011 µg | Accumulative excretion amount (oral NS 60 mg/kg, 120 h): 2.528 ± 1.439 µg | Accumulative excretion percentage (oral NS 60 mg/kg, 120 h): 0.060±0.034% | Excretion amount (oral NS 60 mg/kg, 120 h): 0.006 ± 0.003 µg
